Data: patent US12023385B2, “Tunable endogenous protein degradation with heterobifunctional compounds” (DANA-FARBER CANCER INSTITUTE, INC., priority 2017, dated 2024)
Entries after “also recorded” stand apart in the source; their conditions may differ.

Assays:
FKBP* fused to Nluc = target: T1, FKBP* fused to Nluc (Homo sapiens, UniProt P62942, F37V); test: Nluc/Fluc luciferase ratio assay of FKBP* degradation in 293FT cells; type: cell-based; settings: wild type or CRBN−/− 293FT cells, indicated concentrations, 4 hours
T1 construct: Nluc (nano luciferase) fusion partner; expressed in transfected cells; host or cells: 293FT cells (wild type or CRBN-/-)
T1 sequence (P62942 2-108 F37V): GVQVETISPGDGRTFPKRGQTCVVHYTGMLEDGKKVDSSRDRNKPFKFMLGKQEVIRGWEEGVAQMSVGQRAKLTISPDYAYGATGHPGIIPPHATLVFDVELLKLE
T1 sequence (Q96SW2 whole entry partner, the tested form may be a part): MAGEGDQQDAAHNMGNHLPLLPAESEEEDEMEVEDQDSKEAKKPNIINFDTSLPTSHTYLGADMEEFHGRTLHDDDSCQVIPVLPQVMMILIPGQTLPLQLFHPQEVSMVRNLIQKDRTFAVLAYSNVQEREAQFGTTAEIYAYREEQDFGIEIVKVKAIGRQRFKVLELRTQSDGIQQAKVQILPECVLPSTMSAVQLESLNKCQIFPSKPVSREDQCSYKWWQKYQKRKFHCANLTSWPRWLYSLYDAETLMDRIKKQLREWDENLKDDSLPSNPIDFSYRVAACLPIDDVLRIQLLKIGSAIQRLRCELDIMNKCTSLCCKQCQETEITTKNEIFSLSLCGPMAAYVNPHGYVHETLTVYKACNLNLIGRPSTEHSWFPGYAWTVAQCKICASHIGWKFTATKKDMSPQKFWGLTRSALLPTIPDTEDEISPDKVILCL
T1 sequence (Q16531 whole entry partner, the tested form may be a part): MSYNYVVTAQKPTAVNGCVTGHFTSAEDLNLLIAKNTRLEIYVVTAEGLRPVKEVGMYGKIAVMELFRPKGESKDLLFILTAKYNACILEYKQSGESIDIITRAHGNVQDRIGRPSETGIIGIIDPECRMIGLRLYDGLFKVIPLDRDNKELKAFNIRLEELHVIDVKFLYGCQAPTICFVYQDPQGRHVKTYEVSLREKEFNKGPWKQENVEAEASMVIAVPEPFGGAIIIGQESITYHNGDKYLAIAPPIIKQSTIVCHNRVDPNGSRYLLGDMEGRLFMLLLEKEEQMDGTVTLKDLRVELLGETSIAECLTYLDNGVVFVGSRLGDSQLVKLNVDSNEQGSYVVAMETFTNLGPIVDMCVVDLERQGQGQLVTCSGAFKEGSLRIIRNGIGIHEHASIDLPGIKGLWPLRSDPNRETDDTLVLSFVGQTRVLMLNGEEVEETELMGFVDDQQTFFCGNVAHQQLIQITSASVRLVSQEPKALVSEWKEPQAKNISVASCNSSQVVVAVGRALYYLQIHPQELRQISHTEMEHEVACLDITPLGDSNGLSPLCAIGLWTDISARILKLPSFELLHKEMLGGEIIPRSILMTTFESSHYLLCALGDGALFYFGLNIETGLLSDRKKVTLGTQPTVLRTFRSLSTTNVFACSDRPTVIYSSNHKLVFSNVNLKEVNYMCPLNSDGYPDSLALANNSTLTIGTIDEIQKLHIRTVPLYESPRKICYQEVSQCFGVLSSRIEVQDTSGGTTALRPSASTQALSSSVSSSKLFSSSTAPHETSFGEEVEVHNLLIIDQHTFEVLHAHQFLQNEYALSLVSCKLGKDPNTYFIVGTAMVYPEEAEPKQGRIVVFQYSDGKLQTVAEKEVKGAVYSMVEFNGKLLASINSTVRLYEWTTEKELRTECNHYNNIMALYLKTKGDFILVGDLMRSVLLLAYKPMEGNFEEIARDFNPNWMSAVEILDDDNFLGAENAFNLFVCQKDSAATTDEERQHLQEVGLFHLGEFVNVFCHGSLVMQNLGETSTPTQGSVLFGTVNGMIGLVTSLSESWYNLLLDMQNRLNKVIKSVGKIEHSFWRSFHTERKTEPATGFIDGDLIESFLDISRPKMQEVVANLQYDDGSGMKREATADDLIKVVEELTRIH
Protocol: In an effort to identify potent and selective dFKPB heterobifunctional compounds, high throughput measurements of targeted FKBP* degradation were measured by surrogate levels of luciferase. Here, FKBP* is exogenously expressed as a multicistronic transcript with two types of luciferase: nano luciferase (NLuc) and firefly luciferase (FLuc) that allow for cell normalized quantification of FKBP* protein levels. Degradation of FKBP* is measured as a signal ration (Nluc/Fluc) in wild type (FIG. 4A) or CRBN −/− (FIG. 4B) 293FT cells treated with indicated concentrations of dFKBPs for 4 hours.

[1] = tested on: KRAS signaling (pMEK and pAKT); test: Immunoblot of downstream surrogates of KRAS signaling in NIH3T3 cells expressing dTAG-KRAS; type: cell-based
Protocol: (§1) Cells were treated with 500 nM dFKBP7 for the indicated time. Cells were harvested and immunoblotted to measure degradation of FKBP*-KRAS and downstream surrogates of KRAS signaling (e.g. pMEK and pAKT).
In an effort to identify the best performing dFKBP molecule, dTAG-KRAS degradation was profiled across a series of dFKBP molecules. Western blotting of NIH3T3 cells expressing dTAG-KRASG12V were treated with 1 μM of the indicated dFKBP heterobifunctional compounds for 24 hours. Cells were harvested and immunoblotted to measure degradation of FKBP*-KRAS and downstream surrogates of KRAS signaling (e.g. pMEK and pAKT).
(§2) Western blotting of NIH3T3 cells expressing FKBP* fused to the N-terminus of KRAS treated with the indicated concentrations of dFKBP13 for 24 hours. Cells were harvested and immunoblotted to measure degradation of FKBP*-KRAS and downstream surrogates of KRAS signaling (e.g. pMEK and pAKT).
(§3) To evaluate the kinetic control of targeted degradation of dTAG-KRAS, dFKBP13 was administered by increased duration. Western blotting of NIH3T3 cells expressing FKBP* fused to the N-terminus of KRAS treated with 1 μM dFKBP13 for the indicated time. Cells were harvested and immunoblotted to measure degradation of FKBP*-KRAS and downstream surrogates of KRAS signaling (e.g. pMEK and pAKT).
The dFKBP13 heterobifunctional compound potently degrades dTAG-KRAS mutant alleles. […]

[2] = tested on: NIH3T3 cells expressing dTAG-KRASG12V; test: Propidium iodide cell cycle analysis of NIH3T3 cells expressing dTAG-KRASG12V; type: cell-based; settings: 48 hours
Protocol: NIH3T3 cells were engineered to express dTAG-KRASG12V. NIH3T3 cells expressing dTAG-KRASG12V were treated with dFKBP7 and dFKBP13 for 48 hours to induce targeted dTAG-KRASG12V degradation. Fixed cells were stained with propidium iodide and cell cycle analysis was performed.

FKBP*-KRASG12V = test: Immunoblot of FKBP*-KRASG12V (dTAG-KRAS) degradation in NIH3T3 cells; type: cell-based
Protocol: as §1
Western blotting of NIH3T3 cells expressing dTAG-KRASG12V were treated with 1 μM of the indicated dFKBP heterobifunctional compounds for 24 hours. Cells were harvested and immunoblotted to measure degradation of FKBP*-KRAS and downstream surrogates of KRAS signaling (e.g. pMEK and pAKT).
as §2, §3
NIH3T3 cells (CRBN-WT) were engineered to express dTAG-KRASG12V. […]

FKBP* = target: T2, FKBP* (Homo sapiens, UniProt P62942, F37V); test: Immunoblot of FKBP* degradation in 293FT cells (CRBN-WT or CRBN−/−); type: cell-based; settings: 4 hours
T2 construct: HA; expressed in transfected cells; host or cells: 293FT cells (CRBN-WT or CRBN-/-)
T2 sequence (P62942 whole entry F37V): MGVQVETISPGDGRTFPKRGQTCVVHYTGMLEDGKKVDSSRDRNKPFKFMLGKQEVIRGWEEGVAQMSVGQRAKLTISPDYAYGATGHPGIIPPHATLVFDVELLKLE
Protocol: (§4) The dTAG is predicated on the selectivity of FKBP* specific ligands over endogenous, wild type FKBP. In 293T cells expressing wild type FKBP12 or FKBP*, dFKBP7 induces targeted degradation only in FKBP* expressing cells. An immunoblot of cells treated with heterobifunctional compounds described in the present invention was performed. 293FT cells (CRBN-WT or CRBN−/−) expressing either HA-tagged FKBP12WT or FKBP* were treated with indicated concentrations of dFKBP7 for 4 hours.
In 293T cells expressing wild type FKBP12 or FKBP*, treatment with dFKBP7 and dFKBP13 induces targeted degradation only in FKBP* expressing cells. Isogenic 293FT cells (CRBN-WT or CRBN−/−) were engineered to expressed either FKBP12WT or FKBP*. Cells were treated with 100 nM of either dFKBP7 or dFKBP13 for 4 hours before lysates were prepared for western immunoblot analysis.
In an effort to define the optimal concentration of dFKB13 heterobifunctional compound to induce degradation of FKBP*, degradation was measured upon treatment with increasing concentrations of dFKBP13. Isogenic 293FT cells (CRBN-WT or CRBN−/−) were engineered to expressed HA-tagged FKBP*. Cells were treated with the indicated dose of dFKBP13 for 4 hours before lysates were prepared for western immunoblot analysis.
To evaluate the kinetic control of targeted degradation FKBP*, dFKBP13 was administered by increased duration. […]

[3] = tested on: indicated proteins fused to mutant FKBP* with an HA tag; test: Immunoblot of proteins fused to dTAG (FKBP*) in MV4;11 leukemia cells; settings: indicated concentrations, 16 hours, western blot
From the text: To test the general utility of the dTAG technology across several protein types, the indicated proteins fused to the dTAG in MV4;11 leukemia cells were expressed.

FKBP12WT = target: T3, FKBP12WT (Homo sapiens, UniProt P62942); test: Immunoblot of wild type FKBP12 in 293FT cells (selectivity control); type: cell-based; settings: 4 hours
T3 construct: HA; expressed in transfected cells; host or cells: 293FT cells (CRBN-WT or CRBN-/-)
T3 sequence (P62942 whole entry): as the sequence (P62942 whole entry F37V) above, with V37F counted along it
Protocol: as §4, with “In 293T cells expressing wild type FKBP12 or FKBP*, dFKBP7 induces targeted degradation only in FKBP* expressing cells.” left out
Isogenic 293FT cells (CRBN-WT or CRBN−/−) were engineered to expressed either FKBP12WT or FKBP*. Cells were treated with 100 nM of either dFKBP7 or dFKBP13 for 4 hours before lysates were prepared for western immunoblot analysis.

[4] = 293FT CRBN-WT or CRBN−/−, indicated concentrations
[5] = isogenic 293FT CRBN-WT or CRBN−/−, 100 nM
[6] = NIH3T3 dTAG-KRASG12V, 1 μM, 24 hours

CC[C@H](C(=O)N1CCCC[C@H]1C(=O)O[C@H](CCc1ccc(OC)c(OC)c1)c1cccc(OCC(=O)NCCCOCCOCCOCCCNC(=O)COc2cccc3c2C(=O)N(C2CCC(=O)NC2=O)C3=O)c1)c1cc(OC)c(OC)c(OC)c1 (some centres unmarked) [dFKBP7]
degradation of FKBP* as signal ratio (Nluc/Fluc) (FKBP* fused to Nluc): effectively degrade FKBP* in a cereblon dependent manner | downstream p-AKT signal ([1]; NIH3T3 N-terminal dTAG-KRAS, 500 nM, indicated time): decrease in p-AKT signal | cell cycle profile (S-phase entry) [2]: diminished S-phase entry | degradation of N-terminal dTAG-KRAS (FKBP*-KRASG12V; NIH3T3, 500 nM, indicated time): potent degradation; also recorded: degraded | degradation of HA-tagged FKBP* (FKBP*; [4]): CRBN-dependent degradation of FKBP* | degradation of FKBP* (FKBP*; [5]): CRBN-dependent degradation of FKBP* | targeted degradation of proteins fused to dTAG [3]: degradation was observed with nanomolar concentrations | degradation of HA-tagged FKBP12WT (FKBP12WT; [4]): not FKBPWT | degradation of FKBP12WT or endogenous FKBP12 (FKBP12WT; [5]): not FKBP12WT or endogenous FKBP12

CC[C@H](C(=O)N1CCCC[C@H]1C(=O)O[C@H](CCc1ccc(OC)c(OC)c1)c1cccc(OCC(=O)NCCCCCCCCNC(=O)COc2cccc3c2C(=O)N(C2CCC(=O)NC2=O)C3=O)c1)c1cc(OC)c(OC)c(OC)c1 (some centres unmarked) [dFKBP9]
inhibition of downstream signaling (pMEK, pAKT) [1, 6]: inhibition of downstream signaling | degradation of FKBP*-KRAS (FKBP*-KRASG12V; [6]): potent degradation
